Experimental data taken from ChEMBL document CHEMBL1144329, “De novo design, synthesis, and in vitro activity of LFA-1 antagonists based on a bicyclic[5.5]hydantoin scaffold” (Bioorg Med Chem Lett, 2005).

Molecular target: Intercellular adhesion molecule (ICAM-1), Integrin alpha-L/beta-2 (Homo sapiens, UniProt P05107+P20701)
Test: Inhibitory concentration against leukocyte function-associated antigen-1 in HSB-2 human lymphoblast and H1HeLa cell adhesion assay
Type: functional, cell-based, H1-HeLa

Sequence of Intercellular adhesion molecule (ICAM-1), Integrin alpha-L/beta-2 (P20701 whole entry): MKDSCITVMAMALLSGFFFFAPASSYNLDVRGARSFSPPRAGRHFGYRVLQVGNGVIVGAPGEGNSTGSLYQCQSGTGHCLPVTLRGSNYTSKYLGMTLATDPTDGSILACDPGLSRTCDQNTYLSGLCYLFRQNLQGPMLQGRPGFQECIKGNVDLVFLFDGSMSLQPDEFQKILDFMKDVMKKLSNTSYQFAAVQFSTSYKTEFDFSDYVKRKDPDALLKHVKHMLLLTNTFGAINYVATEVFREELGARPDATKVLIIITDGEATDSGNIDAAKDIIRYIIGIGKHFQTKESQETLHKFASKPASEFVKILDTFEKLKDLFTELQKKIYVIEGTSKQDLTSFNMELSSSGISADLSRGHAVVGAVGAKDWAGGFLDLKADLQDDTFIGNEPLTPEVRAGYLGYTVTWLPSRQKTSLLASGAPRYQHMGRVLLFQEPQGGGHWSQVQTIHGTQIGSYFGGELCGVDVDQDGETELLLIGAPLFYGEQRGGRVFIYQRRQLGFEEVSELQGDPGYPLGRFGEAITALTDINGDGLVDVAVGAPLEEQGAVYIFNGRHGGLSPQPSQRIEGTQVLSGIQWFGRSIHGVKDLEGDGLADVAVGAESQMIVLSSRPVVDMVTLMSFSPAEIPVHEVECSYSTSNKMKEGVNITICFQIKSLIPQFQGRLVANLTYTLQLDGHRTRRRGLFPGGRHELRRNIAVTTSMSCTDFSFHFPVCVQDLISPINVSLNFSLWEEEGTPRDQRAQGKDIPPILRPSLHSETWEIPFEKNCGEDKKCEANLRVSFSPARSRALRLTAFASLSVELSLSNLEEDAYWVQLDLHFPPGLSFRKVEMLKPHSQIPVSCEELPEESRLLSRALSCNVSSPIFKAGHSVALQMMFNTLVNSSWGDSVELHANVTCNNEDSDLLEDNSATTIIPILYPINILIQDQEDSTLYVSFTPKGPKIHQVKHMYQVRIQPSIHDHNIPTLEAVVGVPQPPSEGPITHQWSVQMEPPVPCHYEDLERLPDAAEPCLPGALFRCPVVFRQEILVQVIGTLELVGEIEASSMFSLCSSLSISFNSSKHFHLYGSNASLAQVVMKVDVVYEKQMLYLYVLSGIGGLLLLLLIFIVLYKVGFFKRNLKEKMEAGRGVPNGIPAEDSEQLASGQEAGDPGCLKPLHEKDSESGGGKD
Sequence of Intercellular adhesion molecule (ICAM-1), Integrin alpha-L/beta-2 (P05362 whole entry, further chain): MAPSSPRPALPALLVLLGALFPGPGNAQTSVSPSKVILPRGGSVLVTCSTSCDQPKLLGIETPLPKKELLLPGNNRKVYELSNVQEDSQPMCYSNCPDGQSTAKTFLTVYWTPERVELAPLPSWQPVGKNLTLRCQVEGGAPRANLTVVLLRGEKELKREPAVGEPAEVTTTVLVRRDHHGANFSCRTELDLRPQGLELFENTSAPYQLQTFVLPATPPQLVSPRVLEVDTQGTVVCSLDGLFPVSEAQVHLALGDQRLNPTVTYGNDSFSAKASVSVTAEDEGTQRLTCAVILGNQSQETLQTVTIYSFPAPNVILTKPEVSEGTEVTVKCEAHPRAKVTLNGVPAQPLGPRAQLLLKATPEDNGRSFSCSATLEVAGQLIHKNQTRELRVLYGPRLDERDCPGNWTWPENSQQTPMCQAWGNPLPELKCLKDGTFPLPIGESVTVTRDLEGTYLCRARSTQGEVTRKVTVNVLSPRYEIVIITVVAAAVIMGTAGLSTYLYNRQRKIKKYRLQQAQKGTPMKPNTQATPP
Sequence of Intercellular adhesion molecule (ICAM-1), Integrin alpha-L/beta-2 (P05107 whole entry): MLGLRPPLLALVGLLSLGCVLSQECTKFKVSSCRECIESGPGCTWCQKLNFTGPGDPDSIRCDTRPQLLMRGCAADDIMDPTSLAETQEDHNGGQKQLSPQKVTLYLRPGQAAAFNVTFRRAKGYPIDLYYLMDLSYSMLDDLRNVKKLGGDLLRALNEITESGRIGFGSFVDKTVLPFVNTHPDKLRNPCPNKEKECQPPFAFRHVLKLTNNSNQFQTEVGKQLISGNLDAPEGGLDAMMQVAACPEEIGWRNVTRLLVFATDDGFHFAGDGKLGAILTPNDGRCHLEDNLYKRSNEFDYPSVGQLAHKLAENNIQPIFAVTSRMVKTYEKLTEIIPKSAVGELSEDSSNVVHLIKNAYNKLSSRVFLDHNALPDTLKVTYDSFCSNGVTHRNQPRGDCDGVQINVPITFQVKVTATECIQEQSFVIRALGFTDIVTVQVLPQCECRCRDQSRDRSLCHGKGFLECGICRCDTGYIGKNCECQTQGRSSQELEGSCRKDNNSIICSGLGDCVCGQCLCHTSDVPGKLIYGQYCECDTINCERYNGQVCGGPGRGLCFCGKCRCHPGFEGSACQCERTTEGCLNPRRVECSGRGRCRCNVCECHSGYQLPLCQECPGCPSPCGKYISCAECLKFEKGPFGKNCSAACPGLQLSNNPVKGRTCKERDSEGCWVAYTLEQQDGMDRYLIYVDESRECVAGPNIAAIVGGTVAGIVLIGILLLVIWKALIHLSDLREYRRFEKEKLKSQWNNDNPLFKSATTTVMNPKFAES

SMILES	IC50
O=C1[C@@H]2C[C@H](OCc3cccc(-c4ccc(Br)cc4)c3)CN2C(=O)N1c1cc(Cl)cc(Cl)c1	85 nM
N#Cc1ccc(-c2cccc(CO[C@H]3C[C@H]4C(=O)N(c5cc(Cl)cc(Cl)c5)C(=O)N4C3)c2)cc1	270 nM
O=C1[C@@H]2C[C@H](OCc3cccc(-c4cccc(Br)c4)c3)CN2C(=O)N1c1cc(Cl)cc(Cl)c1	755 nM
O=C1[C@@H]2C[C@@H](OCc3cccc(-c4ccc(Br)cc4)c3)CN2C(=O)N1c1cc(Cl)cc(Cl)c1	935 nM
CCN(Cc1cccc(-c2ccc(C#N)cc2)c1)[C@H]1C[C@H]2C(=O)N(c3cc(Cl)cc(Cl)c3)C(=O)N2C1	730 nM
O=C1[C@@H]2C[C@H](Oc3ccc(-c4ccc(Br)cc4)cc3)CN2C(=O)N1c1cc(Cl)cc(Cl)c1	480 nM
CN(Cc1cccc(-c2ccc(Br)cc2)c1)[C@H]1C[C@H]2C(=O)N(c3cc(Cl)cc(Cl)c3)C(=O)N2C1	175 nM
O=C1[C@@H]2C[C@H](SCc3cccc(-c4ccc(Br)cc4)c3)CN2C(=O)N1c1cc(Cl)cc(Cl)c1	290 nM
O=C1[C@H]2C[C@@H](OCc3cccc(-c4ccc(Br)cc4)c3)CN2C(=O)N1c1cc(Cl)cc(Cl)c1	275 nM
N#Cc1ccc(-c2cccc(CN[C@H]3C[C@H]4C(=O)N(c5cc(Cl)cc(Cl)c5)C(=O)N4C3)c2)cc1	175 nM
O=C1[C@H]2C[C@@H](OCc3cccc(-c4ccc(Cl)cc4)c3)CN2C(=O)N1c1cc(Cl)cc(Cl)c1	620 nM
